Source: ChEMBL document CHEMBL1201862, “PubChem BioAssay data set” (2004)
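In this assay, cells in 96-well plates receive the compound at five concentrations for 48 hours. Endpoints are linearly interpolated between the surrounding concentrations. GI50 = concentration required for 50% inhibition of growth.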 Activity calls are given as the source filed them. Rule as the data show it: active = GI50 up to about 1.1 µM and inactive = higher.

What was measured:
Test in all cases: DTP human tumour cell line panel, 48 h
RPMI-8226 = tested on: RPMI-8226
COLO 205 = tested on: COLO 205
UO-31 = tested on: UO-31
MCF7 = tested on: MCF7
CAKI-1 = tested on: CAKI-1
ACHN = tested on: ACHN
SK-MEL-2 = tested on: SK-MEL-2
T47D = tested on: T47D
SK-MEL-28 = tested on: SK-MEL-28
SN12C = tested on: SN12C
786-0 = tested on: 786-0
A549 = tested on: A549
MDA-MB-231 = tested on: MDA-MB-231
TK-10 = tested on: TK-10
IGROV-1 = tested on: IGROV-1
MOLT-4 = tested on: MOLT-4
HT-29 = tested on: HT-29
NCI/ADR-RES = tested on: NCI/ADR-RES
OVCAR-3 = tested on: OVCAR-3
OVCAR-5 = tested on: OVCAR-5

Measured: GI50

COc1cc2c(cc1OCCCCCCCCCCN1C(=O)c3cccc4cccc(c34)C1=O)N=C[C@@H]1CCCN1C2=O
inactive: RPMI-8226 1.82 µM | COLO 205 3.52 µM | UO-31 7.46 µM | MCF7 2.01 µM | CAKI-1 4.43 µM | ACHN 10 µM | SK-MEL-2 3.74 µM | T47D 4.41 µM | SK-MEL-28 12.3 µM | SN12C 4.42 µM | 786-0 9.06 µM | A549 12.4 µM | MDA-MB-231 3.62 µM | TK-10 13.5 µM | IGROV-1 1.59 µM | MOLT-4 2.41 µM | HT-29 6.76 µM | NCI/ADR-RES 2.64 µM | OVCAR-3 3.73 µM | OVCAR-5 25.8 µM

CCOC(=O)NC(C(C(=O)OCC)C(=O)OCC)(C(F)(F)F)C(F)(F)F
inactive: RPMI-8226 > 100 µM | COLO 205 > 100 µM | UO-31 > 100 µM | MCF7 > 100 µM | CAKI-1 > 100 µM | ACHN > 100 µM | SK-MEL-2 > 100 µM | T47D > 100 µM | SK-MEL-28 > 100 µM | SN12C > 100 µM | 786-0 > 100 µM | A549 > 100 µM | MDA-MB-231 > 100 µM | TK-10 > 100 µM | IGROV-1 > 100 µM | MOLT-4 > 100 µM | HT-29 > 100 µM | NCI/ADR-RES > 100 µM | OVCAR-3 > 100 µM | OVCAR-5 > 100 µM
